This is an account of results in article PMC9917099, “The Mycotoxin Patulin Inhibits the Mitochondrial Carnitine/Acylcarnitine Carrier (SLC25A20) by Interaction with Cys136 Implications for Human Health” (International Journal of Molecular Sciences, 2023).

Numbering of substitutions follows the chain as printed. Values joined by “and” are separate entries in the source; they are usually repeats but may differ in a detail not shown here. Equal entries are not always repeated.

For orientation: IC50 means the concentration at which inhibition is half-maximal.

For experiment [1], the target named is T1, rat CAC mutant C23V/C58V/C89S/C155V/C283S (Rattus norvegicus, UniProt P97521, C155V/C23V/C283S/C58V/C89S).
T1 construct: made in house; host or cells: E. coli C0214 (pMW7, inclusion bodies)
T1 sequence (P97521 1-301 C23V/C58V/C89S/C155V/C283S): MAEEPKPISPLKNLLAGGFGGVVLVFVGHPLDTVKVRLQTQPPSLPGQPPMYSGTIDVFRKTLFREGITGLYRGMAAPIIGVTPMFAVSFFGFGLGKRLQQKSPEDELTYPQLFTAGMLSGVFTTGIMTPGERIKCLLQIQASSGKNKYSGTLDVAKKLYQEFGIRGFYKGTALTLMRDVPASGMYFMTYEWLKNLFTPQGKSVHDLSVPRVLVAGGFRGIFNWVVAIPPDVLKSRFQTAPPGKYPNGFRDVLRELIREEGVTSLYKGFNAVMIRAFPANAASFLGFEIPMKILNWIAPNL
Description: Carnitine antiport in proteoliposomes, CAC mutant containing only C136. The experiment is classed as biochemical. As to the method:
To shed light on the interaction between PAT and CAC and verify if specific Cys residues were involved, transport experiments on the recombinant rat and human WT CAC and CAC’s rat Cys mutants were performed. As in the case of the native protein, transport activities were measured as [^3H]-carnitine/carnitine antiport in proteoliposomes. […] The PAT inhibition of the WT recombinant protein was only slightly greater compared to the native protein, although compounds and other molecular systems that affect the mycotoxin binding to the native CAC were absent (see above). For identifying the residues involved in the PAT interaction, site-directed Cys mutants were tested for inhibition (Figure 2). […]
Figure 2 Dose-response analysis of the PAT inhibition of the CAC recombinant proteins. […] The data are expressed as a percentage of the controls (no PAT addition) and are means ± SD of three independent experiments. […]
(§1) For the transport assay, 550 μL of proteoliposomes were passed through a Sephadex G-75 column in order to remove the external substrate. […] After finishing the transport reaction, the external radiolabel substrate was removed by gel filtration chromatography (Sephadex G-75), and the intraliposomal radioactivity was measured by liquid scintillation. Transport was measured at 25 °C. […] Transport rates were measured in 10 min, i.e., within the initial linear range of the time course.

Experiment [2] deals with T2, native mitochondrial carnitine/acylcarnitine carrier (CAC, SLC25A20) (Rattus norvegicus, UniProt P97521).
T2 construct: the native protein extracted from rat liver mitochondria; from tissue; host or cells: rat liver mitochondria (Triton X-100 extract)
T2 sequence (P97521 1-301): T1 sequence (P97521 1-301 C23V/C58V/C89S/C155V/C283S) with V23C, V58C, S89C, V155C, S283C
Briefly: [3H]-carnitine/carnitine antiport in proteoliposomes reconstituted with native CAC extracted from rat liver mitochondria. The experiment is classed as biochemical. The conditions noted are these: PAT incubated 30 min, 0.1 mM [3H]carnitine 10 min, read-out: IC50 of CAC inhibition. On the procedure: For studying the effect of PAT on the native mitochondrial CAC, a dose–response analysis on the rat liver-extracted mitochondria was performed. Aliquots of the mitochondrial extract (0.3 mg of total proteins) were reconstituted in liposomes and incubated for 30 min with several concentrations of PAT before starting the transport assay as [^3H]-carnitine/carnitine antiport (see Materials and Methods).
Figure 1 Effect of Patulin on the native carnitine/acylcarnitine carrier (CAC). (A) Dose-response analysis of proteoliposomes reconstituted with the CAC extracted from rat liver mitochondria (0.3 mg of total proteins) and incubated with PAT at the indicated concentrations for 30 min, before measuring the transport activity by adding 0.1 mM [^3H] carnitine for 10 min as described in Materials and Methods. The percentage of residual activity compared to control, without PAT treatment, is reported. […]
as §1

For `O=C1C=C2C(=CCOC2O)O1` (centres unmarked) [PAT, 4-hydroxy-4H-furo [3,2c] pyran-2 [6H] -one], the IC50 result in experiment [1] is “comparable to the WT”; in experiment [2], 55 µM and ~50 µM.
